# Measured values as given in ChEMBL document CHEMBL5725286, “Polyfluorinated compounds acting as bruton tyrosine kinase inhibitors” (2017).
# Target: Tyrosine-protein kinase BTK (Homo sapiens, UniProt Q06187)
# Assay: HTRF Assay: The enzyme reaction mixture of BTK wild type standard HTRF assay contained 1 nM BTK wild type, 1 μM biotin-TK1 peptide, and 30 μM ATP in a buffer. The enzyme reaction were carried out at room temperature for 60 minutes. 5 μl of 0.2 M EDTA were added to quench the reaction and then […] were added at final concentrations of 2 nM antibody and 62.5 nM XL665. The plates were incubated at room temperature for 60 minutes and then read in the Envision plate reader.
# Tyrosine-protein kinase BTK, sequence (Q06187 whole entry): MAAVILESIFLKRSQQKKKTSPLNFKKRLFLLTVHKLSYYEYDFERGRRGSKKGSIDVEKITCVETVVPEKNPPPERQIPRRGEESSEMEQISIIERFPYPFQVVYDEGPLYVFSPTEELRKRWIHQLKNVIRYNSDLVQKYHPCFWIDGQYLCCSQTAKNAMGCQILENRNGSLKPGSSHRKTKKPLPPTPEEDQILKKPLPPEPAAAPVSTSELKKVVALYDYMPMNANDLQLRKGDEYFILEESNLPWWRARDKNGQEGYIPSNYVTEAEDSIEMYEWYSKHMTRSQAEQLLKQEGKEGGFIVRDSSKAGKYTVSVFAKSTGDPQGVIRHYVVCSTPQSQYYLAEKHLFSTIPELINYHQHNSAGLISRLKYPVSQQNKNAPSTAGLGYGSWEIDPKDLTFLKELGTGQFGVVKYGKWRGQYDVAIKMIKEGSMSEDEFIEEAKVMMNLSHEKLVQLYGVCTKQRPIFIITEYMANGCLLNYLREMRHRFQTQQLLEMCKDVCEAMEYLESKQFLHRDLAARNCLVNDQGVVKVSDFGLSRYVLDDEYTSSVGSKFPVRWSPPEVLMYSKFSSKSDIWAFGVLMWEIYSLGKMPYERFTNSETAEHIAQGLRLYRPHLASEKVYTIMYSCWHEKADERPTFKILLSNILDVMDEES
smiles,measurement,value
Nc1ncnc2c1c(-c1ccc(Oc3c(F)c(F)cc(F)c3F)cc1F)nn2C1CCC(NC(=O)CSSCC(=O)NC2CCC(n3nc(-c4ccc(Oc5c(F)c(F)cc(F)c5F)cc4F)c4c(N)ncnc43)CC2)CC1 (stereo unspecified),IC50,0.022 µM
